Laboratory results taken from US9241952B2, “Method of treating type II diabetes, hyperglycemia or hypoglycemia by administering a synergistic combination of a sulphonylurea and inulin” (OZSTAR THERAPEUTICS PTY LTD, priority 2010, dated 2016).

Legend:
Format in all cases: in vivo, human
[1] = Fasting blood glucose (FBG), Accu-Chek, T2DM patient on Glibenclamide with inulin (Examples 1 and 3)
Protocol: (§1) Other similar devices can also be used.
The efficacy of inulin on Glibenclamide therapy was investigated. Several years prior to inulin combination therapy, patient's FBG fluctuated drastically and was uncontrolled around 10 mmol/L. Their cholesterol and triglyceride were also very high (Table 2). FIG. 1 depicts the monthly FBG average at indicated time points. Conditions of treatments are described below: • January 2007: Patient's endocrinologist increased the Glibenclamide dose from 2×5 mg to 3×5 mg per day. […] For the first time they were diagnosed with Atrial fibrillation and prescribed with Warfarin. […] Low FBG assisted in excellent recovery. • March 2009: Inulin supply became unavailable.
The patient, as described above in Example 1, was switched over to inulin (Orafti), and combination therapy with Glibenclaminde (5 mg, three times daily) continued following a similar protocol as described above except that the patient received 15 gr/day of inulin (Orafti).

[2] = FBG, HA1c and lipid profiles by independent pathology laboratory, Example 1 patient (Table 2); settings: Nov. 5, 2006; prior to inulin
Text: as §1

[3] = FBG, T2DM patient on Gliclazide with inulin (Example 2)
Protocol: as §1
Another patient, who was under Gliclazide therapy (30 mg, once daily) for nearly a decade with uncontrolled blood glucose levels above 9 mmol/L, also began the combination therapy with inulin (JLS). Various blood parameter measurements were as described in Example 1.

Row | Compound | average FBG ([1]; February 2007, Glibenclamide 3×5 mg per day) [mmol/L] | average FBG ([1]; January 2007, Glibenclamide 2×5 mg per day) [mmol/L] | FBG ([1]; by October 2009, inulin unavailable from March 2009) [mmol/L] | FBG ([1]; several years prior to inulin combination therapy, uncontrolled) | Cholesterol [2] [mmol/L] | Fasting Glucose [2] [mmol/L] | Triglyceride [2] [mmol/L] | blood glucose levels ([3]; Gliclazide 30 mg once daily for nearly a decade, uncontrolled) | FBG level ([3]; Gliclazide 30 mg once daily, before inulin, ± SEM) [mmol/L]
1 | COc1ccc(Cl)cc1C(=O)NCCc1ccc(S(=O)(=O)NC(=O)NC2CCCCC2)cc1 [Glibenclamide] | 6 | 7.8 | ~7.5 | around 10 mmol/L | 6.2 | 10 | 4 |  | 
2 | Cc1ccc(S(=O)(=O)NC(=O)NN2CC3CCCC3C2)cc1 (stereo not drawn) [Gliclazide] |  |  |  |  |  |  |  | above 9 mmol/L | 9.4 ± 1.82
